Experimental data published in patent publication US20220357332A1, “TRIPHENYLENE DERIVATIVES FOR USE IN IMAGING BIOLOGICAL TISSUE OR FLUID” (CHROMATWIST LIMITED, priority 2019, published 2022).

Legend:
[1] = Luminescent data (absorption, emission, quantum yield, brightness) in solvents; assay type: physicochemical
Excerpt: Referring now to Table 1, there is shown luminescent data for Compounds 1 to 6.

[2] = Luminescence data for pairs of compounds absorbing at the same wavelength and emitting at different wavelengths; assay type: physicochemical
Excerpt: Referring now to Tables 2 to 4, there is provided luminescence data for pairs of compounds which are capable of absorbing at the same wavelength and emitting at different wavelengths.

human liver = conditions: 45 min, 1 μg/ml
Description: All fluorophores were testing using donated human tissue which had been previously rejected for transplantation. All reagents were diluted in pre-warmed Dulbecos Modified Eagles Medium (DMEM) or CO2-independent media (both Invitrogen) to working concentrations and then perfused into pieces of liver for 45 min. Membrane and nuclear dyes were used simultaneously to visualise other cellular structures within the liver. Tissues were then imaged using multiphoton microscopy (825 nm). All fluorophores were used at 1 μg/ml (giving 0.1% of vehicle, being DMSO or THF). Testing of TpOx-2-Nap (green fluorophore) was done using DMSO as a solvent. […] was used for comparison, having been perfused through a separate piece of tissue from the same donor.

[3] = Solubility (statements in words); assay type: physicochemical; conditions: DMSO as a solvent, diluted in medium to 1 μg/ml
[4] = Acetonitrile (ϵr 37.5, viscosity 0.38 cP)
[5] = Ethyl acetate (ϵr 6.0, viscosity 0.45 cP)
[6] = Octan-1-ol (ϵr 10.3, viscosity 7.36 cP)

SMILES: CCCCCOc1cc2c3cc(OCCCCC)c(OCCCCC)cc3c3c(cc(OCCCCC)c4oc(-c5ccc6ccccc6c5)nc43)c2cc1OCCCCC [Compound 3, 8-(naphthalen-2-yl)-2,3,6,11,12-pentakis(pentyloxy)triphenyleno[1,2-d]oxazole]
- Absorption λmax [1, 4]: 273 nm
- Brightness [1, 4]: 44 ± 4 M⁻¹ cm⁻¹
- Emission λmax [1, 4]: 524 nm
- pSS [1, 4]: 17600 cm^−1
- Φ [1, 4]: 0.51 ± 0.05
- Absorption λmax [1, 5]: 272 nm
- Brightness [1, 5]: 92 ± 9 M⁻¹ cm⁻¹
- Emission λmax [1, 5]: 494 nm
- pSS [1, 5]: 16500 cm^−1
- Φ [1, 5]: 0.55 ± 0.05
- Absorption λmax [1, 6]: 272 nm
- Brightness [1, 6]: 91 ± 9 M⁻¹ cm⁻¹
- Emission λmax [1, 6]: 497 nm
- pSS [1, 6]: 16600 cm^−1
- Φ [1, 6]: 0.71 ± 0.07
- QY [2]: 0.55
- pSS (cm^−1) [2]: 16500 cm^−1
- pSS (nm) [2]: 222 nm
- Absorption % Abs at 355 nm ([2]; 355 nm): 17%
- Absorption % Abs at 405 nm ([2]; 405 nm): 7%
- ε × 10^3 (M^−1 cm^−1) at 355 nm ([2]; at 355 nm, solvent not given): 29 × 10^3 M^−1 cm^−1
- ε × 10^3 (M^−1 cm^−1) at 405 nm ([2]; at 405 nm, solvent not given): 13 × 10^3 M^−1 cm^−1
- ε × 10^3 (M^−1 cm^−1) at λMax ([2]; at λMax, solvent not given): 164 × 10^3 M^−1 cm^−1
- Absorption λMax ([2]; solvent not given): 272 nm
- Emission λMax ([2]; solvent not given): 494 nm
- Uptake by hepatocytes (human liver): Diffuse green fluorescence (12) was observed within the cytoplasm of the hepatocytes
- Solubility with DMSO as solvent [3]: limited solubility
